Assay results reported in patent US11242327B2, “Analgesic compounds” (RECURIUM IP HOLDINGS, LLC, priority 2017, dated 2022).

Key:
Opiate μ = Opiate μ (Homo sapiens, UniProt P35372); experiment: NSAIDS and Opioid Receptor Test: Opiate μ; type: binding; settings: 10 μM
male Sprague-Dawley rats [1] = experiment: Spinal Nerve Ligation (SNL) Neuropathic Pain Test; type: in vivo; settings: rat, oral; for 50% response threshold, 1 h: 1 h after administration; for 50% response threshold, 2 h: 2 h after administration; for 50% response threshold, 4 h: 4 h after administration
Procedure: Neuropathy was induced in non-fasted male Sprague-Dawley rats weighing 75-100 g by surgically ligating the 4th and 5th lumbar spinal nerves (L4 and L5), a procedure also known as spinal nerve ligation (SNL). Animals were placed in individual acrylic chambers on a metal mesh surface and allowed to acclimate to their surroundings for a minimum of 15 minutes before testing. Mechanical sensitivity was assessed using 8 Semmes-Weinstein filaments (Stoelting©; Wood Dale, Ill., USA) with varying stiffness (0.4, 0.6, 1.0, 2.0, 4.0, 6.0, 8.0, and 15 g) according to an up-down method to determine 50% response thresholds. Each filament was presented perpendicular to the plantar surface with sufficient force to cause slight buckling against the paw and held for approximately 6 seconds or until a positive response is noted (paw sharply withdrawn). Testing was initiated with the 2.0 g filament. In the absence of a paw withdrawal response, the next stronger stimulus was presented. In the event of paw withdrawal, the next weaker stimulus was used. This process was repeated until 4 responses after the initial change in response (no response to positive response or positive response to no response) were obtained. […] The 50% response threshold was calculated using the formula: 50% response threshold (g)=(10^(Xf+kδ))/10,000;
Xf=value (in log units) of the final von Frey filament used;
k=tabular value for the pattern of positive/negative responses (See Chaplan, et al. “Quantitative Assessment of Tactile Allodynia in the Rat Paw” J. Neurosci. Meth. 53.1 (1994): 56-63);
[…] =mean difference (in log units) between stimuli.
The mean and standard error of the mean (SEM) were determined for each paw for each treatment group at each time point. Thresholds were determined prior to surgery and again 14 days later. After 14 days, test or control compounds were administered and thresholds were again determined 1, 2, and 4 hours after compound administration. Median response thresholds in compound-treated animals were compared to those in vehicle treated animals to determine anti-allodynic efficacy of test and control compounds. Test compounds were administered orally at concentrations of 10, 30 or 100 mg/kg and gabapentin was administered orally at a concentration of 100 mg/kg. The control group received the vehicle (sterile water). In Table 7, ‘A’ designates a 50% threshold of ≥8 grams, ‘B’ designates a 50% threshold of ≥6 and <8 grams, and ‘C’ designates a 50% threshold of <6 grams.
The results provided in Table 7 are for oral administration in rats.

male Sprague-Dawley rats [2] = experiment: Osteoarthritis Pain Test (MIA, mechanical hyperalgesia); type: in vivo; settings: rat; for joint compression threshold, Day 3, 1 h: Day 3, 1 h post-dosing; for joint compression threshold, Day 3, 2 h: Day 3, 2 h post-dosing; for joint compression threshold, Day 3, 4 h: Day 3, 4 h post-dosing; for joint compression threshold, Day 6, 1 h: Day 6, 1 h post-dosing; for joint compression threshold, Day 6, 2 h: Day 6, 2 h post-dosing; for joint compression threshold, Day 6, 4 h: Day 6, 4 h post-dosing; for joint compression threshold, Day 0, 1 h: Day 0, 1 h post-dosing; for joint compression threshold, Day 0, 2 h: Day 0, 2 h post-dosing; for joint compression threshold, Day 0, 4 h: Day 0, 4 h post-dosing
Procedure: Osteoarthritis pain was induced in non-fasted male Sprague-Dawley rats weighing 150-250 g by injecting 2 mg of monosodium iodoacetate (MIA) into the left knee joint. Mechanical hyperalgesia was measured using a digital Randall-Selitto device (dRS; IITC Life Sciences©; Woodland Hills, Calif.). Animals were allowed to acclimate to the testing room for a minimum of 15 minutes before testing. Animals were placed in a restraint sling that suspended the animal, leaving the hind limbs available for testing. The stimulus was applied to the knee joint by a blunt tip and pressure was applied gradually over approximately 10 seconds. Joint compression threshold values were recorded at the first observed nocifensive behavior (vocalization, struggle, or withdrawal). One reading per joint was taken at each time point, and a maximum stimulus cutoff of 500 grams was used to prevent injury to the animal. Mechanical hyperalgesia was assessed prior to MIA injection, and again 14 days later. After 14 days, test or control articles were administered once daily for 7 days with mechanical hyperalgesia assessed prior to dosing, 1, 2, and 4 hours post-dosing on days 0, 3, and 6. Test compounds were administered orally at concentrations of 3, 10, 30 or 100 mg/kg and celecoxib was administered orally at a concentration of 30 mg/kg. The control group received the vehicle (sterile water). After day 0, groups receiving the 100 mg/kg dose were reduced to a dose of 3 mg/kg. In Table 5, ‘A’ designates ≥375 grams of joint compression, ‘B’ designates ≥325 and <375 grams of joint compression, and ‘C’ designates <325 grams of joint compression.
The results provided in Table 5 are for oral administration in rats.

[3] = oral once daily, 3 mg/kg (group had 100 mg/kg on day 0)

Sequence of Opiate μ (P35372 whole entry): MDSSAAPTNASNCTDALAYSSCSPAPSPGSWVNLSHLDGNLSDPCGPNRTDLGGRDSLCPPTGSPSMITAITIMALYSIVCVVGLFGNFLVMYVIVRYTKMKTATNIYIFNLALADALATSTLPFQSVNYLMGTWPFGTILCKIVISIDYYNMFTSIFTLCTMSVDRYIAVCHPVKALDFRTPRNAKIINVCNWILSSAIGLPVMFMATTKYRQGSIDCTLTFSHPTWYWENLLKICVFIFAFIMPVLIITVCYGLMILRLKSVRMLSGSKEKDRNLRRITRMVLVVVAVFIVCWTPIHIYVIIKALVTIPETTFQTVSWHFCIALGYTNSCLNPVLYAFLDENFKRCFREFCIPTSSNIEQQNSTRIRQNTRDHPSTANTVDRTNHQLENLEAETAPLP

Cl.NC12CC(c3nc(C(F)(F)F)cs3)(C1)C2 [Compound 1, 3-(4-(Trifluoromethyl)thiazol-2-yl)bicyclo[1.1.1]pentan-1-amine hydrochloride]
inhibition at 10 µM (Opiate μ): 11%
50% response threshold, 1 h (male Sprague-Dawley rats [1]; 10 mg/kg): C (a 50% threshold of <6 grams)
50% response threshold, 2 h (male Sprague-Dawley rats [1]; 10 mg/kg): C (a 50% threshold of <6 grams)
50% response threshold, 4 h (male Sprague-Dawley rats [1]; 10 mg/kg): C (a 50% threshold of <6 grams)
50% response threshold, 1 h (male Sprague-Dawley rats [1]; 30 mg/kg): B (a 50% threshold of ≥6 and <8 grams)
50% response threshold, 2 h (male Sprague-Dawley rats [1]; 30 mg/kg): B (a 50% threshold of ≥6 and <8 grams)
50% response threshold, 4 h (male Sprague-Dawley rats [1]; 30 mg/kg): C (a 50% threshold of <6 grams)
50% response threshold, 1 h (male Sprague-Dawley rats [1]; 100 mg/kg): A (a 50% threshold of ≥8 grams)
50% response threshold, 2 h (male Sprague-Dawley rats [1]; 100 mg/kg): A (a 50% threshold of ≥8 grams)
50% response threshold, 4 h (male Sprague-Dawley rats [1]; 100 mg/kg): A (a 50% threshold of ≥8 grams)
joint compression threshold, Day 3, 1 h (male Sprague-Dawley rats [2]; [3]): A (≥375 grams of joint compression)
joint compression threshold, Day 3, 2 h (male Sprague-Dawley rats [2]; [3]): A (≥375 grams of joint compression)
joint compression threshold, Day 3, 4 h (male Sprague-Dawley rats [2]; [3]): A (≥375 grams of joint compression)
joint compression threshold, Day 6, 1 h (male Sprague-Dawley rats [2]; [3]): A (≥375 grams of joint compression)
joint compression threshold, Day 6, 2 h (male Sprague-Dawley rats [2]; [3]): B (≥325 and <375 grams of joint compression)
joint compression threshold, Day 6, 4 h (male Sprague-Dawley rats [2]; [3]): A (≥375 grams of joint compression)
joint compression threshold, Day 0, 1 h (male Sprague-Dawley rats [2]; oral once daily, 10 mg/kg): B (≥325 and <375 grams of joint compression)
joint compression threshold, Day 0, 2 h (male Sprague-Dawley rats [2]; oral once daily, 10 mg/kg): C (<325 grams of joint compression)
joint compression threshold, Day 0, 4 h (male Sprague-Dawley rats [2]; oral once daily, 10 mg/kg): C (<325 grams of joint compression)
joint compression threshold, Day 3, 1 h (male Sprague-Dawley rats [2]; oral once daily, 10 mg/kg): B (≥325 and <375 grams of joint compression)
joint compression threshold, Day 3, 2 h (male Sprague-Dawley rats [2]; oral once daily, 10 mg/kg): B (≥325 and <375 grams of joint compression)
joint compression threshold, Day 3, 4 h (male Sprague-Dawley rats [2]; oral once daily, 10 mg/kg): B (≥325 and <375 grams of joint compression)
joint compression threshold, Day 6, 1 h (male Sprague-Dawley rats [2]; oral once daily, 10 mg/kg): B (≥325 and <375 grams of joint compression)
joint compression threshold, Day 6, 2 h (male Sprague-Dawley rats [2]; oral once daily, 10 mg/kg): B (≥325 and <375 grams of joint compression)
joint compression threshold, Day 6, 4 h (male Sprague-Dawley rats [2]; oral once daily, 10 mg/kg): B (≥325 and <375 grams of joint compression)
joint compression threshold, Day 0, 1 h (male Sprague-Dawley rats [2]; oral once daily, 30 mg/kg): B (≥325 and <375 grams of joint compression)
joint compression threshold, Day 0, 2 h (male Sprague-Dawley rats [2]; oral once daily, 30 mg/kg): B (≥325 and <375 grams of joint compression)
joint compression threshold, Day 0, 4 h (male Sprague-Dawley rats [2]; oral once daily, 30 mg/kg): B (≥325 and <375 grams of joint compression)
joint compression threshold, Day 3, 1 h (male Sprague-Dawley rats [2]; oral once daily, 30 mg/kg): A (≥375 grams of joint compression)
joint compression threshold, Day 3, 2 h (male Sprague-Dawley rats [2]; oral once daily, 30 mg/kg): A (≥375 grams of joint compression)
joint compression threshold, Day 3, 4 h (male Sprague-Dawley rats [2]; oral once daily, 30 mg/kg): B (≥325 and <375 grams of joint compression)
joint compression threshold, Day 6, 1 h (male Sprague-Dawley rats [2]; oral once daily, 30 mg/kg): A (≥375 grams of joint compression)
joint compression threshold, Day 6, 2 h (male Sprague-Dawley rats [2]; oral once daily, 30 mg/kg): B (≥325 and <375 grams of joint compression)
joint compression threshold, Day 6, 4 h (male Sprague-Dawley rats [2]; oral once daily, 30 mg/kg): B (≥325 and <375 grams of joint compression)
joint compression threshold, Day 0, 1 h (male Sprague-Dawley rats [2]; oral, 100 mg/kg): A (≥375 grams of joint compression)
joint compression threshold, Day 0, 2 h (male Sprague-Dawley rats [2]; oral, 100 mg/kg): A (≥375 grams of joint compression)
joint compression threshold, Day 0, 4 h (male Sprague-Dawley rats [2]; oral, 100 mg/kg): A (≥375 grams of joint compression)
